# Assay results reported in patent US20260232679A1, “PHARMACEUTICAL COMPOSITION FOR TREATING TUMORS” (Eisai R&D Management Co., Ltd., priority 2023, published 2026).
# Experiments:
# [1] = test system: human colorectal cancer cell line Colo205 cells; experiment: Antitumor effect in transplantation model nude mouse with human colorectal cancer cell line Colo205 cells (Example 1); type: in vivo; conditions: 14 days; for enhancement in antitumor effect (tumor volume) by combined use with Trametinib: combined with Trametinib 0.3 mg/kg p.o., formula (I) 12.5 or 25 mg/kg p.o., ICG001 100 mg/kg i.p., FIGS. 1-3
# Method: Human colorectal cancer-derived cell line Colo205 cells (supplied by ATCC) were suspended in Hanks' Balanced Salt Solution (HBSS) (manufactured by FUJIFILM Wako Chemicals) at 5× 10^7 cells/mL. 0.1 mL of the obtained cell suspension was transplanted subcutaneously to a right frank of 6-week nude mice (CAnN.Cg-Foxn1 nu/CrlCrlj, manufactured by Charles River Laboratories Japan, Inc.). Ten days after the transplantation, a major axis and a minor axis of a tumor generated in each mouse were measured with a digimatic caliper (manufactured by Mitutoyo Corp.), and the mice were divided into groups each including six mice such that an average tumor volume was approximately equal. The tumor volume was calculated according to the following formula.
# From ten days after the transplantation, the compound represented by formula (I) (12.5 mg/kg or 25 mg/kg, once a day, 14 days, orally administered), Trametinib (0.3 mg/kg, once a day, 14 days, orally administered), and ICG001 (100 mg/kg, once a day, 14 days, intraperitoneally administered) were administered singly or in combination to the mice in a single administration group or a combined administration group. Note that any one of the above agents was not administered to a control group.
# Note that, at the time of administration, the compound represented by formula (I) was dissolved in 0.1 M hydrochloric acid at 1.25 mg/mL or 2.50 mg/mL, Trametinib (manufactured by Amadis Chemical) was dissolved in distilled water (pH 8.0) (manufactured by Otsuka Pharmaceutical Co., Ltd.) containing 0.5 w/v % of hydroxypropyl methyl cellulose (manufactured by FUJIFILM Wako Chemicals) and 0.2 w/v % of Tween80 (manufactured by Sigma) at 0.03 mg/mL, and ICG001 (manufactured by WuXi App Tec) was dissolved in physiological saline (manufactured by Otsuka Pharmaceutical Co., Ltd.) containing 3.5 w/v % of dimethylsulfoxide (manufactured by Wako Pure Chemical Industries, Ltd.) and 6.5 w/v % of Tween80 at 10 mg/mL.
# The administration start day was defined as the first day, and a major axis and a minor axis of a tumor generated in each mouse were measured on the fifth day, the eighth day, the twelfth day, and the fifteenth day, and a tumor volume was calculated by a similar method to the above-described method. FIG. 1 illustrates a transition of the tumor volume in a case where 12.5 mg/kg of the compound represented by formula (I) and 0.3 mg/kg of Trametinib were administered singly or in combination. FIG. 2 illustrates a transition of the tumor volume in a case where 25.0 mg/kg of the compound represented by formula (I) and 0.3 mg/kg of Trametinib were administered singly or in combination. FIG. 3 illustrates a transition of the tumor volume in a case where 100 mg/kg of ICG001 and 0.3 mg/kg of Trametinib were administered singly or in combination. […]
# [2] = test system: patient-derived colorectal cancer organoid; conditions: PDX model mouse, ICG001 + Trametinib; cited from earlier work
# [3] = test system: human colorectal cancer cell line HT-29 (BRAF V600E-mutant); conditions: HT-29 subcutaneous mouse model, cited from earlier work
# [4] = test system: human non-small cell lung cancer cell line NCI-H358 cells; experiment: Antitumor effect in transplantation model nude mouse with human non-small cell lung cancer cell line NCI-H358 cells (Example 4); type: in vivo; conditions: p.o. once a day, 14 days
# Method: (§1) The tumor volume was calculated according to the following formula.
# [5] = test system: human colorectal cancer cell line SW1463 cells; experiment: Antitumor effect in transplantation model nude mouse with human colorectal cancer cell line SW1463 cells (Example 2); type: in vivo; conditions: formula (I) 25.0 mg/kg + Trametinib 0.3 mg/kg + Adagrasib 10 mg/kg, p.o. once a day, 14 days
# Method: as §1
# [6] = test system: human melanoma cell line A375 cells; experiment: Antitumor effect in transplantation model nude mouse with human melanoma cell line A375 cells (Example 5); type: in vivo; conditions: p.o. once a day, 14 days
# Method: as §1
# [7] = test system: human colorectal cancer cell line Colo205 cells; experiment: Antitumor effect in transplantation model nude mouse with human colorectal cancer cell line Colo205 cells (Example 3); type: in vivo; conditions: p.o. once a day, 14 days
# Method: as §1
# [8] = formula (I) 25.0 mg/kg + Trametinib 0.3 mg/kg + Adagrasib 3 mg/kg, FIG. 12
# [9] = formula (I) 25 mg/kg + Trametinib 0.3 mg/kg, FIG. 10
# [10] = formula (I) 25 mg/kg + Trametinib 0.3 mg/kg, FIG. 13
# [11] = formula (I) 25 mg/kg + Trametinib 0.3 mg/kg, FIG. 7
compound,measurement,setting,value
O=C1[C@H](Cc2ccc(O)cc2)N2C(=O)CCN(C(=O)NCc3ccccc3)[C@H]2CN1Cc1cccc2ccccc12 [ICG001],enhancement in antitumor effect (tumor volume) by combined use with Trametinib,[1]; once a day,remarkable enhancement in antitumor effect was not observed
same,"antitumor effect, in combination with Trametinib compared to the single administration",[2],antitumor effect is enhanced
same,"antitumor effect, in combination with both Vemurafenib and Trametinib compared to the single administration",[3]; ICG001 + Vemurafenib + Trametinib,antitumor effect is enhanced
same,"antitumor effect, in combination with Vemurafenib compared to the single administration",[3]; ICG001 + Vemurafenib,antitumor effect is enhanced
"C=CCN1CC(=O)N2[C@@H](Cc3ccc(O)cc3F)C(=O)N(Cc3cccc(N4CC(N5CCN(CC)CC5)C4)n3)C[C@@H]2N1C(=O)NCc1ccccc1 [compound represented by formula (I), (6S,9aS)—N-benzyl-8-({6-[3-(4-ethylpiperazin-1-yl)azetidin-1-yl]pyridin-2-yl}methyl)-6-(2-fluoro-4-hydroxybenzyl)-4,7-dioxo-2-(prop-2-en-1-yl)hexahydro-2H-pyrazino[2,1-c][1,2,4]triazine-1(6H)-carboxamide]",enhancement in antitumor effect (tumor volume) by combined use with Trametinib,[1]; once a day,remarkable enhancement in antitumor effect
same,"tumor proliferation, combined use with Trametinib compared with formula (I) or Trametinib administered singly","[1]; formula (I) 12.5 or 25 mg/kg p.o. + Trametinib 0.3 mg/kg p.o., once a day, FIGS. 1 and 2",inhibited tumor proliferation in a statistically significant manner
same,"tumor proliferation, combined administration with Trametinib compared with combined administration of ICG001 and Trametinib","[1]; formula (I) 12.5 or 25 mg/kg p.o. + Trametinib 0.3 mg/kg vs ICG001 100 mg/kg i.p. + Trametinib 0.3 mg/kg, FIG. 4",inhibited tumor proliferation in a statistically significant manner
same,"tumor proliferation, three-agent combination with Trametinib and Adagrasib compared with formula (I) singly or Trametinib + Adagrasib","[4]; formula (I) 25.0 mg/kg + Trametinib 0.3 mg/kg + Adagrasib 3 mg/kg, FIG. 11",inhibited tumor proliferation in a statistically significant manner
same,"antitumor effect, three-agent combination with Trametinib and Adagrasib compared with two-agent formula (I) + Trametinib",[4]; [8],enhancement tendency
same,"tumor proliferation, three-agent combination with Trametinib and Adagrasib compared with Adagrasib singly",[4]; [8],inhibited tumor proliferation in a statistically significant manner
same,"antitumor effect, combined use with Trametinib compared with formula (I) or Trametinib administered singly",[4]; [9],tendency to enhance the antitumor effect
same,enhancement in antitumor effect (tumor volume) by combined use with Trametinib,[4]; [9],remarkable enhancement in antitumor effect
same,"tumor proliferation, three-agent combination with Trametinib and Adagrasib compared with formula (I) singly or Trametinib + Adagrasib",[5]; FIG. 5,inhibited tumor proliferation in a statistically significant manner
same,"tumor proliferation, three-agent combination with Trametinib and Adagrasib compared with Adagrasib singly or formula (I) + Trametinib",[5]; FIG. 6,inhibited tumor proliferation in a statistically significant manner
same,"tumor proliferation, three-agent combination with Trametinib and Dabrafenib compared with formula (I) singly or Trametinib + Dabrafenib","[6]; formula (I) 25.0 mg/kg + Trametinib 0.3 mg/kg + Dabrafenib 30 mg/kg, FIG. 14",inhibited tumor proliferation in a statistically significant manner
same,"tumor proliferation, three-agent combination with Trametinib and Dabrafenib compared with Dabrafenib singly or formula (I) + Trametinib","[6]; formula (I) 25.0 mg/kg + Trametinib 0.3 mg/kg + Dabrafenib 30 mg/kg, FIG. 15",inhibited tumor proliferation in a statistically significant manner
same,enhancement in antitumor effect (tumor volume) by combined use with Trametinib,[6]; [10],remarkable enhancement in antitumor effect
same,"tumor proliferation, combined use with Trametinib compared with formula (I) or Trametinib administered singly",[6]; [10],inhibited tumor proliferation in a statistically significant manner
same,"tumor proliferation, three-agent combination with Trametinib and Dabrafenib compared with two-agent Trametinib + Dabrafenib","[7]; formula (I) 25.0 mg/kg + Trametinib 0.3 mg/kg + Dabrafenib 30 mg/kg, FIG. 8",inhibited tumor proliferation in a statistically significant manner
same,"tumor proliferation, three-agent combination with Trametinib and Dabrafenib compared with two-agent formula (I) + Trametinib","[7]; formula (I) 25.0 mg/kg + Trametinib 0.3 mg/kg + Dabrafenib 30 mg/kg, FIG. 9",inhibited tumor proliferation in a statistically significant manner
same,enhancement in antitumor effect (tumor volume) by combined use with Trametinib,[7]; [11],remarkable enhancement in antitumor effect
same,"tumor proliferation, combined use with Trametinib compared with formula (I) or Trametinib administered singly",[7]; [11],inhibited tumor proliferation in a statistically significant manner
